# Results taken from ChEMBL document CHEMBL3137667, “[Drug-induced liver injury; fourteenth updated edition of the bibliographic database of liver injuries and related drugs]” (Gastroenterol Clin Biol, 2004).
# Key:
# [1] = human, serum
# [2] = human
# [3] = human; remark: listed apart in the source
# [4] = human; remark: listed apart in the source
# [5] = human; remark: listed apart in the source
# [6] = human, serum, 4383 h
# [7] = human; remark: listed apart in the source
# [8] = human; remark: listed apart in the source
# [9] = human; remark: listed apart in the source
# [10] = human; remark: listed apart in the source
# [11] = Highest frequency of acute liver toxicity observed during clinical trials, expressed as a percentage. [column '% AIGUE' in source]; conditions: human
# [12] = human; remark: listed apart in the source
# [13] = Highest frequency of moderate liver toxicity observed during clinical trials, expressed as a percentage. [column '% BIOL' in source]; conditions: human
# [14] = human, serum; remark: listed apart in the source
# [15] = human; remark: listed apart in the source
# [16] = Times to onset, minimal and maximal, observed in the indexed observations. [column 'DELAI' in source]; conditions: human
# 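For Hepatotoxicity (association with vascular disease) in this document: count of indexed literature references reporting vascular liver injury in humans, e.g. peliosis hepatitis, hepatic veno-occlusive disease or Budd-Chiari syndrome.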
# 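For Hepatotoxicity (benign tumour) in this document: value is a count of indexed literature references citing a benign tumour confirmed by histopathology.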
# 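For Hepatotoxicity (choleostasis) in this document: human cholestatic liver injury, shown by histopathology or by peak ALT or AST elevation over alkaline phosphatase ratio below 2, value counts indexed literature reports.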
# 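For Hepatotoxicity (chronic liver disease) in this document: chronic liver injury confirmed by histopathology or persistently raised serum aminotransferase activity beyond 6 months, value given as the count of indexed literature references.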
# 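For Hepatotoxicity (cirrhosis) in this document: value is a count of indexed literature references reporting cirrhosis confirmed by histopathology.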
# 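For Hepatotoxicity (cytolytic) in this document: human cytolytic liver injury, shown by histopathology or by a ratio above 5 of peak ALT or AST elevation to alkaline phosphatase elevation, value counts indexed references.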
# 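For Hepatotoxicity (granulomatous hepatitis) in this document: value is a count of indexed literature references reporting granulomatous liver disease confirmed by histopathology.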
# 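For Hepatotoxicity (malignant tumour) in this document: malignant tumour confirmed by histopathology, value gives the count of indexed literature references reporting it.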
# 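For Hepatotoxicity (severe hepatitis) in this document: human clinical data: severe hepatitis, meaning potentially life-threatening liver failure or clinically observed cases, the value counts how many indexed literature references report it.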
# 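For Hepatotoxicity (steatosis) in this document: steatosis confirmed by histopathology, value is the count of indexed references.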
compound,measurement,setting,value
COc1cc(NS(C)(=O)=O)ccc1Nc1c2ccccc2nc2ccccc12 [AMSACRINE],Hepatotoxicity (moderate),[1],10
same,Hepatotoxicity (steatosis),[2],1
same,Hepatotoxicity (benign tumour),[3],0
same,Hepatotoxicity (granulomatous hepatitis),[4],0
same,Hepatotoxicity (severe hepatitis),[5],4
same,Hepatotoxicity (chronic liver disease),[6],0
same,Hepatotoxicity (choleostasis),[7],0
same,Hepatotoxicity (cytolytic),[8],2
same,Hepatotoxicity (malignant tumour),[9],0
same,Hepatotoxicity (cirrhosis),[10],0
same,Hepatotoxicity (acute),[11],0%
same,Hepatotoxicity (animal toxicity known),[12],yes
same,Hepatotoxicity (moderate),[13],41%
same,Hepatotoxicity (acute),[14],2
same,Hepatotoxicity (association with vascular disease),[15],0
same,Hepatotoxicity (time to onset),[16],5 days - 1 month
CCCC1C(=O)N2C(N(C)C)=Nc3ccc(C)cc3N2C1=O (stereo not given) [APAZONE],Hepatotoxicity (moderate),[1],1
same,Hepatotoxicity (steatosis),[2],0
same,Hepatotoxicity (benign tumour),[3],0
same,Hepatotoxicity (granulomatous hepatitis),[4],1
same,Hepatotoxicity (severe hepatitis),[5],0
same,Hepatotoxicity (chronic liver disease),[6],0
same,Hepatotoxicity (choleostasis),[7],1
same,Hepatotoxicity (cytolytic),[8],0
same,Hepatotoxicity (malignant tumour),[9],0
same,Hepatotoxicity (cirrhosis),[10],0
same,Hepatotoxicity (animal toxicity known),[12],yes
same,Hepatotoxicity (moderate),[13],0%
same,Hepatotoxicity (association with vascular disease),[15],0
same,Hepatotoxicity (time to onset),[16],3 weeks
CN(C)[C@@H]1C(O)=C(C(N)=O)C(=O)[C@@]2(O)C(O)=C3C(=O)c4c(O)ccc(Cl)c4[C@@](C)(O)[C@H]3C[C@@H]12 [CHLORTETRACYCLINE],Hepatotoxicity (moderate),[1],0
same,Hepatotoxicity (steatosis),[2],3
same,Hepatotoxicity (benign tumour),[3],0
same,Hepatotoxicity (granulomatous hepatitis),[4],0
same,Hepatotoxicity (severe hepatitis),[5],0
same,Hepatotoxicity (chronic liver disease),[6],0
same,Hepatotoxicity (choleostasis),[7],1
same,Hepatotoxicity (cytolytic),[8],1
same,Hepatotoxicity (malignant tumour),[9],0
same,Hepatotoxicity (cirrhosis),[10],0
same,Hepatotoxicity (acute),[11],0%
same,Hepatotoxicity (animal toxicity known),[12],yes
same,Hepatotoxicity (moderate),[13],0%
same,Hepatotoxicity (acute),[14],4
same,Hepatotoxicity (association with vascular disease),[15],0
CC(C)/N=c1\cc2n(-c3ccc(Cl)cc3)c3ccccc3nc-2cc1Nc1ccc(Cl)cc1 [CLOFAZIMINE],Hepatotoxicity (moderate),[1],2
same,Hepatotoxicity (steatosis),[2],0
same,Hepatotoxicity (benign tumour),[3],0
same,Hepatotoxicity (granulomatous hepatitis),[4],0
same,Hepatotoxicity (severe hepatitis),[5],0
same,Hepatotoxicity (chronic liver disease),[6],0
same,Hepatotoxicity (choleostasis),[7],1
same,Hepatotoxicity (cytolytic),[8],0
same,Hepatotoxicity (malignant tumour),[9],0
same,Hepatotoxicity (cirrhosis),[10],0
same,Hepatotoxicity (acute),[11],5.6%
same,Hepatotoxicity (animal toxicity known),[12],yes
same,Hepatotoxicity (moderate),[13],16%
same,Hepatotoxicity (acute),[14],1
same,Hepatotoxicity (association with vascular disease),[15],0
N#CN [CYANAMIDE],Hepatotoxicity (moderate),[1],0
same,Hepatotoxicity (steatosis),[2],0
same,Hepatotoxicity (benign tumour),[3],0
same,Hepatotoxicity (granulomatous hepatitis),[4],0
same,Hepatotoxicity (severe hepatitis),[5],0
same,Hepatotoxicity (chronic liver disease),[6],11
same,Hepatotoxicity (choleostasis),[7],2
same,Hepatotoxicity (cytolytic),[8],0
same,Hepatotoxicity (malignant tumour),[9],0
same,Hepatotoxicity (cirrhosis),[10],2
same,Hepatotoxicity (acute),[11],0%
same,Hepatotoxicity (animal toxicity known),[12],yes
same,Hepatotoxicity (moderate),[13],0%
same,Hepatotoxicity (acute),[14],2
same,Hepatotoxicity (association with vascular disease),[15],0
NC[C@@H]1CC[C@@H](N)[C@@H](O[C@H]2[C@H](O)[C@@H](O[C@H]3O[C@H](CO)[C@@H](O)[C@H](N)[C@H]3O)[C@H](N)C[C@@H]2N)O1 [DIBEKACIN],Hepatotoxicity (moderate),[1],1
same,Hepatotoxicity (steatosis),[2],0
same,Hepatotoxicity (benign tumour),[3],0
same,Hepatotoxicity (granulomatous hepatitis),[4],0
same,Hepatotoxicity (severe hepatitis),[5],0
same,Hepatotoxicity (chronic liver disease),[6],0
same,Hepatotoxicity (choleostasis),[7],0
same,Hepatotoxicity (cytolytic),[8],0
same,Hepatotoxicity (malignant tumour),[9],0
same,Hepatotoxicity (cirrhosis),[10],0
same,Hepatotoxicity (acute),[11],0%
same,Hepatotoxicity (animal toxicity known),[12],yes
same,Hepatotoxicity (moderate),[13],13.7%
same,Hepatotoxicity (acute),[14],0
same,Hepatotoxicity (association with vascular disease),[15],0
C[C@]12CC[C@@H]3c4ccc(O)cc4CC[C@H]3[C@@H]1CC[C@@H]2O [ESTRADIOL],Hepatotoxicity (moderate),[1],0
same,Hepatotoxicity (steatosis),[2],0
same,Hepatotoxicity (benign tumour),[3],0
same,Hepatotoxicity (granulomatous hepatitis),[4],0
same,Hepatotoxicity (severe hepatitis),[5],0
same,Hepatotoxicity (chronic liver disease),[6],0
same,Hepatotoxicity (choleostasis),[7],1
same,Hepatotoxicity (cytolytic),[8],0
same,Hepatotoxicity (malignant tumour),[9],0
same,Hepatotoxicity (cirrhosis),[10],0
same,Hepatotoxicity (acute),[11],0%
same,Hepatotoxicity (animal toxicity known),[12],yes
same,Hepatotoxicity (moderate),[13],0%
same,Hepatotoxicity (acute),[14],1
same,Hepatotoxicity (association with vascular disease),[15],0
CC(=O)O[C@]1(C(C)=O)CC[C@H]2[C@@H]3C=C(C)C4=CC(=O)CC[C@]4(C)[C@H]3CC[C@@]21C [MEGESTROL ACETATE],Hepatotoxicity (moderate),[1],4
same,Hepatotoxicity (steatosis),[2],0
same,Hepatotoxicity (benign tumour),[3],0
same,Hepatotoxicity (granulomatous hepatitis),[4],0
same,Hepatotoxicity (severe hepatitis),[5],0
same,Hepatotoxicity (chronic liver disease),[6],0
same,Hepatotoxicity (choleostasis),[7],0
same,Hepatotoxicity (cytolytic),[8],1
same,Hepatotoxicity (malignant tumour),[9],0
same,Hepatotoxicity (cirrhosis),[10],0
same,Hepatotoxicity (acute),[11],2.7%
same,Hepatotoxicity (animal toxicity known),[12],yes
same,Hepatotoxicity (moderate),[13],12.8%
same,Hepatotoxicity (acute),[14],1
same,Hepatotoxicity (association with vascular disease),[15],0
O=C1Nc2ccc(Cl)cc2C(c2ccccc2)=NC1O (stereo not given) [OXAZEPAM],Hepatotoxicity (moderate),[1],0
same,Hepatotoxicity (steatosis),[2],0
same,Hepatotoxicity (benign tumour),[3],0
same,Hepatotoxicity (granulomatous hepatitis),[4]; Liver,0
same,Hepatotoxicity (severe hepatitis),[5]; Liver,0
same,Hepatotoxicity (chronic liver disease),[6],0
same,Hepatotoxicity (choleostasis),[7]; Liver,0
same,Hepatotoxicity (cytolytic),[8]; Liver,0
same,Hepatotoxicity (malignant tumour),[9],0
same,Hepatotoxicity (cirrhosis),[10],0
same,Hepatotoxicity (acute),[11]; Liver,0%
same,Hepatotoxicity (animal toxicity known),[12],yes
same,Hepatotoxicity (moderate),[13]; Liver,0%
same,Hepatotoxicity (acute),[14],0
same,Hepatotoxicity (association with vascular disease),[15],1
Cc1[nH]cnc1CSCCNc1ncc(Cc2ccc3c(c2)OCO3)c(=O)[nH]1 [OXMETIDINE],Hepatotoxicity (moderate),[1],1
same,Hepatotoxicity (steatosis),[2],0
same,Hepatotoxicity (benign tumour),[3],0
same,Hepatotoxicity (granulomatous hepatitis),[4],0
same,Hepatotoxicity (severe hepatitis),[5],0
same,Hepatotoxicity (chronic liver disease),[6],0
same,Hepatotoxicity (choleostasis),[7],0
same,Hepatotoxicity (cytolytic),[8],0
same,Hepatotoxicity (malignant tumour),[9],0
same,Hepatotoxicity (cirrhosis),[10],0
same,Hepatotoxicity (acute),[11],0.1%
same,Hepatotoxicity (animal toxicity known),[12],yes
same,Hepatotoxicity (moderate),[13],0%
same,Hepatotoxicity (acute),[14],1
same,Hepatotoxicity (association with vascular disease),[15],0
CCOC(=O)C1(c2ccccc2)CCN(CCC(O)c2ccccc2)CC1 (stereo not given) [PHENOPERIDINE],Hepatotoxicity (moderate),[1],0
same,Hepatotoxicity (steatosis),[2],0
same,Hepatotoxicity (benign tumour),[3],0
same,Hepatotoxicity (granulomatous hepatitis),[4],0
same,Hepatotoxicity (severe hepatitis),[5],0
same,Hepatotoxicity (chronic liver disease),[6],0
same,Hepatotoxicity (choleostasis),[7],1
same,Hepatotoxicity (cytolytic),[8],0
same,Hepatotoxicity (malignant tumour),[9],0
same,Hepatotoxicity (cirrhosis),[10],0
same,Hepatotoxicity (acute),[11],0%
same,Hepatotoxicity (animal toxicity known),[12],yes
same,Hepatotoxicity (moderate),[13],0%
same,Hepatotoxicity (acute),[14],1
same,Hepatotoxicity (association with vascular disease),[15],0
O=C(OC[C@H]1O[C@@H](OC(=O)c2cc(O)c(O)c(OC(=O)c3cc(O)c(O)c(O)c3)c2)[C@H](OC(=O)c2cc(O)c(O)c(OC(=O)c3cc(O)c(O)c(O)c3)c2)[C@@H](OC(=O)c2cc(O)c(O)c(OC(=O)c3cc(O)c(O)c(O)c3)c2)[C@@H]1OC(=O)c1cc(O)c(O)c(OC(=O)c2cc(O)c(O)c(O)c2)c1)c1cc(O)c(O)c(OC(=O)c2cc(O)c(O)c(O)c2)c1 [TANNIC ACID],Hepatotoxicity (moderate),[1],0
same,Hepatotoxicity (steatosis),[2],0
same,Hepatotoxicity (benign tumour),[3],0
same,Hepatotoxicity (granulomatous hepatitis),[4],0
same,Hepatotoxicity (severe hepatitis),[5],8
same,Hepatotoxicity (chronic liver disease),[6],0
same,Hepatotoxicity (choleostasis),[7],0
same,Hepatotoxicity (cytolytic),[8],13
same,Hepatotoxicity (malignant tumour),[9],0
same,Hepatotoxicity (cirrhosis),[10],0
same,Hepatotoxicity (acute),[11],0%
same,Hepatotoxicity (animal toxicity known),[12],yes
same,Hepatotoxicity (moderate),[13],0%
same,Hepatotoxicity (acute),[14],13
same,Hepatotoxicity (association with vascular disease),[15],0
CC[C@]1(O)C[C@@H]2CN(CCc3c([nH]c4ccccc34)[C@@](C(=O)OC)(c3cc4c(cc3OC)N(C)[C@H]3[C@@](O)(C(N)=O)[C@H](O)[C@]5(CC)C=CCN6CC[C@]43[C@@H]65)C2)C1 [VINDESINE],Hepatotoxicity (moderate),[1],2
same,Hepatotoxicity (steatosis),[2],0
same,Hepatotoxicity (benign tumour),[3],0
same,Hepatotoxicity (granulomatous hepatitis),[4],0
same,Hepatotoxicity (severe hepatitis),[5],0
same,Hepatotoxicity (chronic liver disease),[6],0
same,Hepatotoxicity (choleostasis),[7],0
same,Hepatotoxicity (cytolytic),[8],0
same,Hepatotoxicity (malignant tumour),[9],0
same,Hepatotoxicity (cirrhosis),[10],0
same,Hepatotoxicity (acute),[11],0%
same,Hepatotoxicity (animal toxicity known),[12],yes
same,Hepatotoxicity (moderate),[13],9.1%
same,Hepatotoxicity (acute),[14],0
same,Hepatotoxicity (association with vascular disease),[15],0
POVIDONE-IODINE,Hepatotoxicity (moderate),[1],2
same,Hepatotoxicity (steatosis),[2],0
same,Hepatotoxicity (benign tumour),[3],0
same,Hepatotoxicity (granulomatous hepatitis),[4],0
same,Hepatotoxicity (severe hepatitis),[5],0
same,Hepatotoxicity (chronic liver disease),[6],0
same,Hepatotoxicity (choleostasis),[7],0
same,Hepatotoxicity (cytolytic),[8],0
same,Hepatotoxicity (malignant tumour),[9],0
same,Hepatotoxicity (cirrhosis),[10],0
same,Hepatotoxicity (acute),[11],0%
same,Hepatotoxicity (animal toxicity known),[12],yes
same,Hepatotoxicity (moderate),[13],80%
same,Hepatotoxicity (acute),[14],2
same,Hepatotoxicity (association with vascular disease),[15],0
